Data from US8563714B2, “Bridged spiro [2.4] heptane derivatives as ALX receptor and/or FPRL2 agonists” (Actelion Pharmaceuticals Ltd., priority 2009, dated 2013).

How the values were obtained:
human ALX receptor = target: T1, human ALX receptor (Homo sapiens, UniProt P25090); assay: Intracellular calcium measurements (FLIPR), agonistic activity in HEK293-hALXR-Gα16 cells; format: cell-based; settings: Fluo-4 calcium FLIPR, normalized to WKYMVm 10 nM
T1 construct: expressed in transfected cells; host or cells: HEK293 (HEK293-hALXR-Gα16)
T1 sequence (P25090 1-351): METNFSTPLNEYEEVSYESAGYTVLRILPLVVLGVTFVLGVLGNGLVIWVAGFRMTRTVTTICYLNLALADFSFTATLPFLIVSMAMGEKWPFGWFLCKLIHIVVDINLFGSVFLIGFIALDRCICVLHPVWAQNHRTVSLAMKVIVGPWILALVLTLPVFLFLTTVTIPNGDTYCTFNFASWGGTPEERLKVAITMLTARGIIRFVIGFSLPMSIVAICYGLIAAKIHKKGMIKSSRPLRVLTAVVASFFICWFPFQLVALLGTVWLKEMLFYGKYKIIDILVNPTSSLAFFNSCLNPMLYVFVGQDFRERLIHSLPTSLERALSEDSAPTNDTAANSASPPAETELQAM
Summary of the method: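 Agonist-induced calcium flux was recorded by FLIPR (488/540 nm) in HEK293-hALXR-Gα16 cells pre-loaded with Fluo-4 AM (1 μM, 60 min, 37°C). Peak signal above baseline, after subtracting buffer addition, was expressed relative to WKYMVm at 10 nM final.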

human FPRL2 = target: T2, human FPRL2 (Homo sapiens, UniProt P25089); assay: Intracellular calcium measurements (FLIPR), agonistic activity in HEK293-hFPRL2-Gα16 cells; format: cell-based; settings: Fluo-4 calcium FLIPR, normalized to GLY14-Humanin 100 nM
T2 construct: expressed in transfected cells; host or cells: HEK293 (HEK293-hFPRL2-Gα16)
T2 sequence (P25089 1-353): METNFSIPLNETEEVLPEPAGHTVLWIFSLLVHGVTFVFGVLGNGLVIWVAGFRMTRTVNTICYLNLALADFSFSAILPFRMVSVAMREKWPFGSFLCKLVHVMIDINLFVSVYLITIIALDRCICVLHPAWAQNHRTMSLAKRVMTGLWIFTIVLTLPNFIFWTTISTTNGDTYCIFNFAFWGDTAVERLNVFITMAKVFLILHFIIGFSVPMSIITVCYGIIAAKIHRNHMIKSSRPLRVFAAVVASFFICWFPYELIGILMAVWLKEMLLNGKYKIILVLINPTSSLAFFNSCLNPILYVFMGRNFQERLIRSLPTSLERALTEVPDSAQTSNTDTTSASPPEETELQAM
Summary of the method: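 Peak values after baseline subtraction are expressed relative to 100 nM Gly14-Humanin; compounds diluted in assay buffer from 10 mM DMSO stocks.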

SMILES | EC50 (human ALX receptor) [µM] | EC50 (human FPRL2) [µM]
CCN(CC)CCCC(C)NC(=O)C1C(C(=O)Nc2ccc(Br)cc2)C2C=CC1C21CC1 (mixture of isomers) [Example 25, (5R*)—N^5-(4-Bromophenyl)-(6R*)—N^6-(5-(N,N-diethyl-amino)-pent-2-yl)-(4S*,7R*)-[4,7-ethenylene-spiro[2.4]heptane]-5,6-dicarboxamide] | 0.0039 | 0.365
Cc1cc(C)n(CCC(=O)NCC2C(C(=O)Nc3ccc(Br)cc3)C3C=CC2C32CC2)n1 (stereo not drawn) [Example 159, (5R*)—N^5-(4-Bromo-phenyl)-(6R*)-6-[(3-(3,5-dimethyl-pyrazol-1-yl)-propionylamino)-methyl]-(4S*,7R*)-[4,7-ethenylene-spiro[2.4]heptane]-5-carboxamide] | 0.013 | 2.37
CN1CCN(CCCNC(=O)[C@H]2[C@H](C(=O)Nc3ccc(Br)cc3)[C@@H]3C=C[C@H]2C32CC2)CC1 (racemic) [Example 43, (5R*)—N^5-(4-Bromophenyl)-(6R*)—N^6-(3-(4-methyl-piperazin-1-yl)-propyl)-(4S*,7R*)-[4,7-ethenylene-spiro[2.4]heptane]-5,6-dicarboxamide] | 0.0095 | 0.925
CC(C)(C)OC(=O)NCCCNC(=O)[C@H]1[C@H](C(=O)Nc2ccc(Br)cc2)[C@@H]2C=C[C@H]1C21CC1 (racemic) [Example 57, (5R*)—N^5-(4-Bromophenyl)-(6R*)—N^6-(3-(N-tert-butoxycarbonyl-amino)-propyl)-(4S*,7R*)-[4,7-ethenylene-spiro[2.4]heptane]-5,6-dicarboxamide] | 0.017 | 1.66
O=C(NCCF)[C@H]1[C@H](C(=O)NCc2ccc(Br)cc2)[C@@H]2C=C[C@H]1C21CC1 (racemic) [Example 271, (5R*)—N^5-(4-Bromophenyl-methyl)-(6R*)—N^6-(2-fluoroethyl)-(4S*,7R*)-[4,7-ethenylene-spiro[2.4]heptane]-5,6-dicarboxamide] | 0.673 | > 25
CCCCNC(=O)[C@H]1[C@H](C(=O)NCCCCN2CCCC2)[C@H]2C=C[C@@H]1C21CC1 (racemic) [Example 136, (5R*)—N^5-Butyl-(6R*)—N^6-(4-pyrrolidin-1-yl-butyl)-(4S*,7R*)-[4,7-ethenylene-spiro[2.4]heptane]-5,6-dicarboxamide] | 0.365 | 1.18
O=C(NCCCCN1CCCC1)[C@H]1[C@H](C(=O)NCCOc2ccccc2)[C@@H]2C=C[C@H]1C21CC1 (racemic) [Example 134, (5R*)—N^5-(2-Phenoxy-ethyl)-(6R*)—N^6-(4-pyrrolidin-1-yl-butyl)-(4S*,7R*)-[4,7-ethenylene-spiro[2.4]heptane]-5,6-dicarboxamide] | 0.319 | 0.612
O=C(NCCCCN1CCCC1)[C@H]1[C@H](C(=O)NCc2ccc(OC(F)(F)F)cc2)[C@@H]2C=C[C@H]1C21CC1 (racemic) [Example 232, (5R*)—N^5-(4-Trifluoromethoxy-phenyl-methyl)-(6R*)—N^6-(4-pyrrolidin-1-yl-butyl)-(4S*,7R*)-[4,7-ethenylene-spiro[2.4]heptane]-5,6-dicarboxamide] | 1.26 | 0.112
O=C(NCCCCN1CCCC1)[C@H]1[C@H](C(=O)NCCc2ccccc2)[C@@H]2C=C[C@H]1C21CC1 (racemic) [Example 139, (5R*)—N^5-(2-Phenyl-ethyl)-(6R*)—N^6-(4-pyrrolidin-1-yl-butyl)-(4S*,7R*)-[4,7-ethenylene-spiro[2.4]heptane]-5,6-dicarboxamide] | 0.731 | 0.152

The remaining molecules from weak to strong by EC50 (human ALX receptor), led by results:

EC50 (human ALX receptor) [µM] | EC50 (human FPRL2) [µM] | SMILES
10.6 | 0.644 | O=C(NCCCCN1CCCC1)[C@H]1[C@H](C(=O)NCc2cc(Cl)nc(Cl)c2)[C@@H]2C=C[C@H]1C21CC1 (racemic) [Example 367, (5R*)—N^5-[(2,6-Dichloropyridin-4-yl)methyl]-(6R*)—N^6-(4-pyrrolidino-butyl)-(4S*,7R*)-[4,7-ethenylene-spiro[2.4]heptane]-5,6-dicarboxamide]
4.42 | 0.337 | Cc1nsc2ccc(NC(=O)[C@H]3[C@H](C(=O)NCCCCN4CCCC4)[C@H]4C=C[C@@H]3C43CC3)cc12 (racemic) [Example 146, (5R*)—N^5-(3-Methyl-benzo[d]isothiazol-5-yl)-(6R*)—N^6-(4-pyrrolidin-1-yl-butyl)-(4S*,7R*)-[4,7-ethenylene-spiro[2.4]heptane]-5,6-dicarboxamide]
1.8 | 0.417 | Cc1ccc(CNC(=O)[C@H]2[C@H](C(=O)NCCCCN3CCCC3)[C@H]3C=C[C@@H]2C32CC2)c(C)c1 (racemic) [Example 347, (5R*)—N^5-(2,4-Dimethylphenyl-methyl)-(6R*)—N^6-(4-pyrrolidino-butyl)-(4S*,7R*)-[4,7-ethenylene-spiro[2.4]heptane]-5,6-dicarboxamide]
0.697 | 3.24 | O=C(C=Cc1ccccc1)NC[C@H]1[C@H](C(=O)Nc2ccc(Br)cc2)[C@@H]2C=C[C@H]1C21CC1 (racemic) [Example 189, (5R*)—N^5-(4-Bromo-phenyl)-(6R*)-6-[(3-phenyl-acryloylamino)-methyl]-(4S*,7R*)-[4,7-ethenylene-spiro[2.4]heptane]-5-carboxamide]
0.174 | 3.06 | O=C(NCCCc1nc2ccccc2[nH]1)[C@H]1[C@H](C(=O)Nc2ncc(Br)s2)[C@@H]2C=C[C@H]1C21CC1 (racemic) [Example 248, (5R*)—N^5-(5-Bromo-thiazol-2-yl)-(6R*)—N^6-(3-(1H-benzoimidazol-2-yl)-propyl)-(4S*,7R*)-[4,7-ethenylene-spiro[2.4]heptane]-5,6-dicarboxamide]
0.021 | 1.08 | CC(=O)c1ccc(CNC(=O)C2C(C(=O)NCCCCN3CCCC3)C3CCC2C32CC2)o1 [Example 196, (5R)—N^5-(5-Acetyl-furan-2-yl-methyl)-(6R)—N^6-(4-pyrrolidin-1-yl-butyl)-(4S,7R)-[4,7-ethylene-spiro[2.4]heptane]-5,6-dicarboxamide]
0.0096 | 7.84 | O=C(NCCCCO)[C@H]1[C@H](C(=O)Nc2ccc(Br)cc2)[C@@H]2C=C[C@H]1C21CC1 (racemic) [Example 42, (5R*)—N^5-(4-Bromophenyl)-(6R*)—N^6-(4-hydroxy-butyl)-(4S*,7R*)-[4,7-ethenylene-spiro[2.4]heptane]-5,6-dicarboxamide]
0.0081 | > 25 | NC(=O)CCNC(=O)[C@H]1[C@H](C(=O)Nc2ncc(Br)s2)[C@@H]2C=C[C@H]1C21CC1 [Example 240, (5R)—N^5-(5-Bromo-thiazol-2-yl)-(6R)—N^6-(3-amino-3-oxopropyl)-(4S,7R)-[4,7-ethenylene-spiro[2.4]heptane]-5,6-dicarboxamide]
0.0079 | > 25 | NC(=O)CCNC(=O)[C@H]1[C@H](C(=O)Nc2ccc(Br)nc2)[C@@H]2CC[C@H]1C21CC1 [Example 278, (5R)—N^5-(2-Bromopyrid-5-yl)-(6R)—N^6-(3-amino-3-oxopropyl)-(4S,7R)-[4,7-ethylene-spiro[2.4]heptane]-5,6-dicarboxamide]
0.0064 | 0.143 | O=C(NCCCCN1CCCC1)[C@H]1[C@H](C(=O)Nc2ncc(Br)s2)[C@@H]2C=C[C@H]1C21CC1 [Example 225, (5R)—N^5-(5-Bromo-thiazol-2-yl)-(6R)—N^6-(4-pyrrolidin-1-yl-butyl)-(4S,7R)-[4,7-ethenylene-spiro[2.4]heptane]-5,6-dicarboxamide]
0.00098 | 0.726 | CC(C)(CN)CNC(=O)[C@H]1[C@H](C(=O)Nc2ccc(Br)cc2)[C@@H]2C=C[C@H]1C21CC1 (racemic) [Example 10, (5R*)—N^5-(4-Bromophenyl)-(6R*)—N^6-(2,2-dimethyl-3-amino-propyl)-(4S*,7R*)-[4,7-ethenylene-spiro[2.4]heptane]-5,6-dicarboxamide]
0.00087 | 0.033 | O=C(NCCCCN1CCCC1)[C@H]1[C@H](C(=O)Nc2ccc(Br)c(F)c2)[C@@H]2C=C[C@H]1C21CC1 [Example 288, (5R)—N^5-(4-Bromo-3-fluorophenyl)-(6R)—N^6-(4-pyrrolidino-butyl)-(4S,7R)-[4,7-ethenylene-spiro[2.4]heptane]-5,6-dicarboxamide]
0.00041 | 1.26 | CN(C)CCNC(=O)[C@H]1[C@H](C(=O)Nc2ccc(Br)cc2)[C@@H]2C=C[C@H]1C21CC1 [Example 6, (5R)—N^5-(4-Bromophenyl)-(6R)—N^6-(2-N,N-dimethyl-amino-ethyl)-(4S,7R)-[4,7-ethenylene-spiro[2.4]heptane]-5,6-dicarboxamide]
